Experimental data: patent US8563503B2, “Antibiotic, its nucleotide sequence, methods of construction and uses thereof” (Protein Design Lab. Ltd., priority 2011, dated 2013)
Values after ≈ are worked out from the molar mass of the structure shown. “Also recorded” adds a separate entry of the source.

Columns and labels:
[1] = system: Enterococcus ATCC 700802; experiment: MIC against the infecting strain (Table 2); assay type: cell-based, Enterococcus faecalis; details: ATCC700802
Description: (§1) (3) Culture Solution • MH Broth Culture Solution: 25 g was added into […] distilled water, heat to dissolve, subpackaged, autoclaved at 116° C. for 20 minutes, and MH Solid Culture Medium, 36 g was added into 1000 ml distilled water, autoclaved at 116° C. for 20 minutes, used for drug sensitive test of Gram-positive and negative aerobic bacteria. • Blood culture solution for Enterococcus faecalis, which was prepared by adding defibration rabbit blood into the MH culture solution by 5-10% and cultured at 37° C. in 5% CO2 for 24 hours. 2. Experimental Methods (1) The Measurement of Minimum Inhibitory Concentration (MIC) • The Minimum Inhibitory Concentration (MIC) of PMC-SA1 was measured by Agar Doubling Dilution Method. The bacterium was inoculated on the surface of agar plate containing different concentration of drugs by multipoint inoculate instrument (Deneley A400). The bacterial content per point was 10^5 CFU/ml. After incubated at 37° C. for 18-24 hours, the result can be observed. The least concentration of drugs in plate culture solution without bacterium growing was Minimum Inhibitory Concentration (MIC) of the drug to the said bacteria. 3. Results

[2] = system: Staphylococcus aureus ATCC 29213; experiment: MIC against the infecting strain (Table 2); assay type: cell-based; details: ATCC29213
Description: as §1

[3] = system: E. coli 02-1-65; experiment: MIC against the infecting strain (Table 2); assay type: cell-based; details: Escherichia coli, 02165
Description: as §1

[4] = system: Staphylococcus aureus MRSA BAA-42; experiment: MIC against the infecting strain (Table 2); assay type: cell-based; details: Staphylococcus aureus
Description: as §1

[5] = system: Enterococcus ATCC 700802; experiment: Protection test in vivo (intravenous injection) of infected mice; design: species or system Kungming mice; details: Enterococcus, ATCC700802
Description: (§2) The drugs used in this embodiment were same with that used in embodiment 4.
(§3) The above drugs were dissolved and diluted by sterilized water, and the injection concentrations of each drug were 10 mg/kg, 5 mg/kg and 2.5 mg/kg.
(§4) After given intraperitoneal injection of fatal dose of above-mentioned bacteria, the mice of each drug experimental group respectively were given once intravenous injection of the drug by 10 mg, 5 mg, 2.5 mg/kg. The results were observed per 24 hours for 7-14 days. The positive result is mice's death.

[6] = system: Staphylococcus aureus ATCC 29213; experiment: as above; design: species or system Kungming mice; details: Staphylococcus aureus, ATCC29213
Description: as §2, §3, §4

[7] = system: E. coli 02-1-65; experiment: as above; design: species or system Kungming mice; details: Escherichia coli, 02165
Description: as §2, §3, §4

[8] = system: Staphylococcus aureus MRSA BAA-42; experiment: as above; design: species or system Kungming mice; details: Staphylococcus aureus
Description: as §2, §3, §4

[9] = system: Baumanii; experiment: MIC by Agar Doubling Dilution Method, clinical isolates; assay type: cell-based
Description: as §1

[10] = system: Staphylococcus aureus (MRSA); experiment: as above; assay type: cell-based; details: Staphylococcus aureus, MRSA
Description: as §1

[11] = system: Staphylococcus epidermidis (MSSE strain); experiment: as above; assay type: cell-based; details: Staphylococcus epidermidis
Description: as §1

[12] = system: Staphylococcus epidermidis (MRSE); experiment: as above; assay type: cell-based; details: Staphylococcus epidermidis, MRSE
Description: as §1

[13] = system: E. coli; experiment: as above; assay type: cell-based; details: Escherichia coli
Description: as §1

[14] = system: Staphylococcus aureus (MSSA); experiment: as above; assay type: cell-based; details: Staphylococcus aureus, MSSA
Description: as §1

[15] = system: Enterococcus; experiment: as above; assay type: cell-based, Enterococcus faecalis; details: Enterococcus
Description: as §1

[16] = system: methicillin-resistant Staphylococcus aureus ATCC BAA-42; experiment: Bacteria growth curve (A595 nm), comparison of the novel antibiotics; assay type: cell-based; details: drug 5 μg/ml, 37° C., A595 nm per hour
Description: The following experiment was set for comparing bacteriostasis effects of 6 kinds of the novel antibiotics. The experimental bacteriaum was United States Standard Strain methicillin-resistant Staphylococcus aureus ATCC BAA-42. 5 microliter of bacteria solution (10^6 CFU/ml level bacterium amount) was added into 10 ml culture solution containing 1% peptone, 1% NaCl, 0.5% yeast extract, 0.5% glucose and 0.1% K2HPO4, total of 8 groups were prepared. The first group as control was added 0.3 M NaCl+50 mM boric acid buffer fluid by the same volume as that of antibiosis polypeptide liquid added in any experimental groups, the second group was added penicillin G sodium by 5 μg/ml, PMC-SA1, PMC-SA2, PMC-SA3, PMC-SA4, PMC-SE and PMC-PA were added in the other experimental groups with preservative fluid being 0.3 M NaCl+50 mM boric acid buffer fluid by 5 ug/ml.
(§5) The solution of above groups was put into 100 ml conical flask, 200 rpm, grew at 37° C. 100 μl was sampled per hour, and added onto 96-pore ELISA plate and measured bacteria grown cloudiness by spectrophotometer (A595 nm) color comparison. The bacteria growth curve was drawn up to compare the bacteriostasis efficacy of antibiosis polypeptide.

[17] = system: Staphylococcus epidermidis reference culture No. 26069; experiment: Bacteria growth curve (A595 nm cloudiness), Staphylococcus epidermidis; assay type: cell-based; details: drug 2 μg/ml, 37° C., A595 nm per hour
Description: The bacterium is Staphylococcus epidermidis reference culture No. 26069, purchased from China Center of Culture Collection (National Institute for the Control of Pharmaceutical and Biological Products). 3 microliter of bacterium solution (10^6 CFU/ml level bacterium amount) was added into 10 ml culture solution containing 1% peptone, 1% NaCl, 0.5% yeast extract, 0.5% glucose and 0.1% K2HPO4. Totally four groups were prepared. The first group as control was added 0.3M NaCl+50 mM boric acid buffer fluid by the same volume with that of antibiosis polypeptide liquid added in any experimental groups, the second group was added penicillin G sodium by 2 μg/ml, PMC-SA1 and PMC-SE was added in the other experimental groups by 2 μg/ml (0.3 M NaCl+50 mM boric acid buffer fluid was preservative fluid).
as §5, with “to measure” for “and measured”, “the novel antibiotics.” for “antibiosis polypeptide.”

[18] = Immunization of mice, valence of mouse sera by indirect ELISA; assay type: in vivo; details: from valence of mouse sera
Description: Allosteric peptide of Colicin Ia, i.e. Ia′, PMC-SA1 obtained in embodiment 1, wild-type colicin Ia and the anti-Staphylococcus aureus peptide (ZL01128836.1) which invented by the present inventor were taken respectively to immunize mice. After admixturing with the adjuvant, the above proteins were interaperitonea injected respectively to the mice by 50 μg per mouse for one time of foundational quantity and 50 μg per mouse for one time of additional quantity totally 5 times by two weeks interval. Indirect ELISA detection method was applied to detect the valence of mouse sera (Xiao Yi, et. al., Preparation and preliminary characterization of monoclonal antibodies against Pheromonicin-and-Staphylococcus aureus, Shanxi Medical Journal, 35(1): 6-7, 32 (2006)). The valence of mouse sera which immunized by wild type colicin Ia as well as anti-Staphylococcus aureus polypeptide (ZL01128836.1) was 10^−4 to 10^−5, while the valence of mouse sera which immunized by allosteric peptide of colicin Ia and PMC-SA1 was 10^−2 to 10^−3.

**Q.** Which MIC [1] does the source give for `CN[C@H](CC(C)C)C(=O)N[C@H]1C(=O)N[C@@H](CC(N)=O)C(=O)N[C@H]2C(=O)N[C@H]3C(=O)N[C@H](C(=O)N[C@H](C(=O)O)c4cc(O)cc(O)c4-c4cc3ccc4O)[C@H](O)c3ccc(c(Cl)c3)Oc3cc2cc(c3O[C@@H]2O[C@H](CO)[C@@H](O)[C@H](O)[C@H]2O[C@H]2C[C@](C)(N)[C@H](O)[C@H](C)O2)Oc2ccc(cc2Cl)[C@H]1O` [Vancomycin] here?
**A.** > 16 µg/mL

**Q.** And the MIC [2]?
**A.** 0.5 µg/mL (≈ 0.345 µM)

**Q.** And the MIC [3]?
**A.** 128 µg/mL (≈ 88.3 µM)

**Q.** What about the MIC [4] of the same molecule?
**A.** 0.5 µg/mL (≈ 0.345 µM)

**Q.** What about the ED50 [5] of the same molecule?
**A.** 3.66 mg/kg

**Q.** What about the ED50 [6] of the same molecule?
**A.** 2.42 mg/kg

**Q.** What about the ED50 [7] of the same molecule?
**A.** > 40.1 mg/kg

**Q.** What about the ED50 [8] of the same molecule?
**A.** 3.54 mg/kg

**Q.** And the MIC50 [9]?
**A.** > 128 µg/mL

**Q.** And the MIC90 [9]?
**A.** > 128 µg/mL

**Q.** And the MIC50 [10]?
**A.** 0.25 µg/mL (≈ 0.173 µM)

**Q.** What about the MIC90 [10] of the same molecule?
**A.** 1 µg/mL (≈ 0.69 µM)

**Q.** What about the MIC ([10]; read-out: Scope of MIC) of the same molecule?
**A.** 0.004 to 2 µg/mL (≈ 0.00276 to 1.38 µM)

**Q.** And the MIC50 [11]?
**A.** 0.5 µg/mL (≈ 0.345 µM)

**Q.** And the MIC90 [11]?
**A.** 0.5 µg/mL (≈ 0.345 µM)

**Q.** What about the MIC ([11]; read-out: Scope of MIC) of the same molecule?
**A.** 0.06 to 0.5 µg/mL (≈ 0.0414 to 0.345 µM)

**Q.** And the MIC50 [12]?
**A.** 0.5 µg/mL (≈ 0.345 µM)

**Q.** What about the MIC90 [12] of the same molecule?
**A.** 1 µg/mL (≈ 0.69 µM)

**Q.** And the MIC ([12]; read-out: Scope of MIC)?
**A.** 0.25 to 2 µg/mL (≈ 0.173 to 1.38 µM)

**Q.** What about the MIC50 [13] of the same molecule?
**A.** > 128 µg/mL

**Q.** What about the MIC90 [13] of the same molecule?
**A.** > 128 µg/mL

**Q.** And the MIC ([13]; read-out: Scope of MIC)?
**A.** > 128 µg/mL

**Q.** What about the MIC50 [14] of the same molecule?
**A.** 0.5 µg/mL (≈ 0.345 µM)

**Q.** And the MIC90 [14]?
**A.** 1 µg/mL (≈ 0.69 µM)

**Q.** What about the MIC ([14]; read-out: Scope of MIC) of the same molecule?
**A.** 0.03 to 1 µg/mL (≈ 0.0207 to 0.69 µM)

**Q.** And the MIC50 [15]?
**A.** 1 µg/mL (≈ 0.69 µM)

**Q.** What about the MIC90 [15] of the same molecule?
**A.** 2 µg/mL (≈ 1.38 µM)

**Q.** What about the MIC ([15]; read-out: Scope of MIC) of the same molecule?
**A.** 0.5 to 50 µg/mL (≈ 0.345 to 34.5 µM)

B1: PMC-SE: Staphylococcus epidermidis pheromone linked to C-terminus of allosteric colicin Ia′; SEQ ID NO. 21; plasmid pBHC-SE (protein)
chain: SDPVRITNPAAESLGYDSDGREIMGVDIYLNPPRVDVFKGTPPAWSSFGNKTIWGGNEWVDDSPTRSDIEKRDKEITAYKNTLSAQQKENENKRTEAGKRLSAAIAAREKDENTLKTLRAGNADAADITRQEFRLLQAELREYGFRTEIAGYDALRLHTESRMLFADADSLRISPREARSLIEQAEKRQKDAQNADKKAADMLAEYERRKGILDTRLSELEKNGGAALAVLDAQQARLLGQQTRNDRAISEARNKLSSVTESLNTARNALTRAEQQLTQQKNTPDGKTIVSPEKFPGRSSTNHSIVVSGDPRFAGTIKITTSAVIDNRANLNYLLSHSGLDYKRNILNDRNPVVTEDVEGDKKIYNAEVAEWDKLRQRLLDARNKITSAESAVNSARNNLSARTNEQKHANDALNALLKEKENIRNQLSGINQKIAEEKRKQDELKATKDAINFTTEFLKSVSEKYGAKAEQLAREMAGQAKGKKIRNVEEALKTYEKYRADINKKINAKDRAAIAAALESVKLSDISSNLNRFSRGLGYAGKFTSLADWITEFGKAVRTENWRPLFVKTETIIAGNAATALVALVFSILTGSALGIIGYGLLMAVTGALIDESLVEKANKFWGIDSVCASYF
modifications: The peptide of PMC-SE
notes: Staphylococcus epidermidis pheromone linked to C-terminus of allosteric colicin Ia′; 21; plasmid pBHC-SE
**Q.** Which “bacteriostasis effect on growth of methicillin-resistant Staphylococcus aureus (bacteria growth curve)” value [16] does the source give for B1 here?
**A.** less better

**Q.** What about the “growth of Staphylococcus epidermidis (bacteria growth curve)” value [17] of the same molecule?
**A.** effectively restrained; also recorded: completely restrained

B2: allosteric peptide of colicin Ia: wild-type Colicin Ia with mutations G11A, H22R, A26G, V31L and H40K; SEQ ID NO: 36 (protein)
chain: SDPVRITNPAAESLGYDSDGREIMGVDIYLNPPRVDVFKGTPPAWSSFGNKTIWGGNEWVDDSPTRSDIEKRDKEITAYKNTLSAQQKENENKRTEAGKRLSAAIAAREKDENTLKTLRAGNADAADITRQEFRLLQAELREYGFRTEIAGYDALRLHTESRMLFADADSLRISPREARSLIEQAEKRQKDAQNADKKAADMLAEYERRKGILDTRLSELEKNGGAALAVLDAQQARLLGQQTRNDRAISEARNKLSSVTESLNTARNALTRAEQQLTQQKNTPDGKTIVSPEKFPGRSSTNHSIVVSGDPRFAGTIKITTSAVIDNRANLNYLLSHSGLDYKRNILNDRNPVVTEDVEGDKKIYNAEVAEWDKLRQRLLDARNKITSAESAVNSARNNLSARTNEQKHANDALNALLKEKENIRNQLSGINQKIAEEKRKQDELKATKDAINFTTEFLKSVSEKYGAKAEQLAREMAGQAKGKKIRNVEEALKTYEKYRADINKKINAKDRAAIAAALESVKLSDISSNLNRFSRGLGYAGKFTSLADWITEFGKAVRTENWRPLFVKTETIIAGNAATALVALVFSILTGSALGIIGYGLLMAVTGALIDESLVEKANKFWGI
modifications: allosteric peptide of colicin Ia
**Q.** For B2, which “possibility of causing host allergic reaction relative to anti-Staphylococcus aureus polypeptide” value [18] is on record?
**A.** lower one to two order of magnitude
